Results: patent US12251469B2, “Sterically stabilized carrier compositions for treating a mammal” (VGSK Technologies, Inc., priority 2015, dated 2025)

Test system: sensitized mice
Assay: Preliminary dose-response study of BUD in sensitized mice, histopathologic examination
Type: in vivo
Method: The dose of BUD chosen was based on preliminary dose-response studies with 5 to 50 μg of BUD as follows.
Each day, 5, 10, 15, 20 or 50 μg of BUD was administered to groups of sensitized mice, and the dose-dependent effects on the inflammatory parameters were evaluated.
The tissues were removed and fixed with 10% phosphate buffered formalin. Tissue samples were taken from the skin, spleen, liver, gastrointestinal tract, and kidney. The tissues were embedded in paraffin, sectioned at 5 μm thickness and stained with hematoxylin and eosin and analyzed using light microscopy.
Coded slides were examined by a pathologist in a blinded fashion for evidence of inflammatory changes, including epithelial hyperplasia and perivascular edema and accumulation of eosinophils, neutrophils, and mononuclear inflammatory cells. Each of the parameters evaluated was given an individual number score. Objective measurements of histopathological changes include aggregation of eosinophils around blood vessels (perivascular), accumulation of other inflammatory cells, presence of desquamation and hyperplasia of the epithelium, and infiltration of inflammatory cells.

CCCC1O[C@@H]2C[C@H]3[C@@H]4CCC5=CC(=O)C=C[C@]5(C)[C@H]4[C@@H](O)C[C@]3(C)[C@]2(C(=O)CO)O1 (stereo partly shown) [Daily BUD, budesonide]
granulomas or abnormalities in any of the tissues evaluated: no granulomas or abnormalities
